Measured values reported in patent US11905268B2, “Anthranilic acid derivatives and their use in the treatment of human cancers” (UNIVERSITY OF CENTRAL FLORIDA RESEARCH FOUNDATION, INC., priority 2018, dated 2024).
In brackets after ≈: the same amount, converted by molar mass. Read-outs that look alike come from different tables or passages of the source.

Assays:
[1] = Microsomal stability, human; format: in vitro ADME
Solubility = format: physicochemical; settings: for solubility: PBS
CHO cells [2] = experiment: Cytotoxicity screen in CHO cells
Plasma stability, human = format: in vitro ADME
CHO cells [3] = experiment: Ant44 rescue assay in CHO cells (Assay 1); format: cell-based, Chinese hamster; settings: for EC50 / IC50: Cricetulus griseus
L3.6pl cells [4] = experiment: Ant44 assay in L3.6pl cells; format: cell-based, human
Procedure: For example, in the ANT44 assay an EC48=9 means that the PTI molecule at 9 μM was able to block 48% of the Ant44 entry into L3.6 pl human Pancreatic ductal adenocarcinoma cells after 72 h incubation time at 37° C. Another explanation, is that the PTI was able to disrupt […] of the intracellular trafficking of Ant44 that leads to toxicity. Recall a polyamine transport inhibitor can work at any one (or more than one) of the different steps involved in the multi-step polyamine import and intracellular trafficking process. Blocking the entering spermidine from reaching its intended intracellular target is another way in which these compounds may function.
The higher EC value denotes the compound is giving a relative % growth of L3.6 pl cells consistent with inhibiting either Ant44 uptake or blocking the uptake of the rescuing dose of spermidine. Alternatively these compounds may disrupting the intracellular trafficking of Ant44 and spermidine so they cannot reach their intended intracellular target.

Plasma stability, rat = format: in vitro ADME
Plasma stability, mouse = format: in vitro ADME
[5] = Microsomal stability, rat; format: in vitro ADME
[6] = test system: DFMO treated Chinese hamster ovary (CHO) cells; experiment: DFMO/spermidine rescue assay in CHO cells (Assay 2); format: cell-based; settings: Cricetulus griseus
[7] = Microsomal stability, mouse; format: in vitro ADME
L3.6pl cells [8] = experiment: cells; format: cell-based
[9] = summary of Table 6 (human, mouse, rat)

Compound: COc1ccc(C(=O)Nc2ccc(N3CCN(c4ccccc4OC)CC3)cc2C(=O)O)cc1 [SBI-0800678]
- Microsomal Stability % remaining at 1 hour ([1]; Human): 52.0%
- microsomal stability [1, 9]: good
- solubility in PBS (Solubility): poorly soluble
- solubility (Solubility; aqueous buffer, pH 5.0): 0.3 µg/mL (≈ 0.65 µM)
- solubility (Solubility; pH 6.2, aqueous buffer): 0.1 µg/mL (≈ 0.217 µM)
- solubility (Solubility; pH 7.4, aqueous buffer): > 0.1 µg/mL
- IC50 at 48 h (CHO cells [2]; Chinese hamster, CHO K1 cells): > 40 µM
- CHO MTD (CHO cells [2]; hamster): >32 µM
- Tox (Ant44) (CHO cells [2]; toxic above the stated concentration, CHO cells, listed with Ant44 assay): SBI- 0800678.0001 (20 EC50) Tox >20 μM
- tox (DFMO Assay) (CHO cells [2]; toxic above the stated concentration, CHO cells, listed with DFMO assay): > 15 µM
- Plasma Stability % remaining at 3 hours (Plasma stability, human; Human): 88.0%
- plasma stability (Plasma stability, human; [9]): good
- EC50 (CHO cells [3]; CHO, Table 2, Active in Ant44 assay?, read-out: Ant44 assay EC50 in CHO): ~20 µM
- IC50 (CHO cells [3]; CHO, Table 7, read-out: SAR IC50 Ant44 assay): 9 µM
- EC50 (CHO cells [3]; Table 1 HTS top hits, CHO cells, read-out: Ant44 EC50): 20 µM
- IC50 (CHO cells [3]; Table 4B, CHO cells, read-out: Ant44 IC50): 9 µM
- Active in Ant44 assay? (CHO cells [3]; Table 2, in CHO): Yes
- worked in Assay 1 (Ant44) (L3.6pl cells [4]): worked
- Plasma Stability % remaining at 3 hours (Plasma stability, rat): 55.3%
- Plasma Stability % remaining at 3 hours (Plasma stability, mouse): 83.1%
- Microsomal Stability % remaining at 1 hour [5]: 58.0%
- EC50 ([6]; CHO, Table 2): ~25 µM
- IC50 ([6]; Table 1 HTS top hits, CHO cells, read-out: DFMO Assay IC50): 15 to 25 µM
- Microsomal Stability % remaining at 1 hour [7]: 60.4%
- IC50 (L3.6pl cells [8]; Homo sapiens, L3.6pl, relative growth after 72 h, read-out: L3.6pl IC50): 13.3 ± 0.04 µM
- L3.6pl MTC (L3.6pl cells [8]; maximum tolerated concentration where cells are >90% viable): 6 µM
